Results published in ChEMBL document CHEMBL5357031, “Design and Synthesis of Cytotoxic Water-Soluble Rocaglaol Derivatives against HEL Cells by Inhibiting Fli-1” (J Nat Prod, 2024).
≈ marks a conversion by molar mass, not a printed value. Structures can show the parent of a compound that is named as a salt.

Columns and labels:
SW480 = assay: Cytotoxicity against human SW480 cells assessed as cell growth inhibition incubated for 72 hrs by MTT assay; assay type: functional, cell-based; settings: Homo sapiens, SW480, 72 h
HEL = assay: Cytotoxicity against HEL cells assessed as cell growth inhibition incubated for 72 hrs by MTT assay; assay type: functional, cell-based, Homo sapiens
MDA-MB-231 [1] = assay: cells; settings: Homo sapiens, MDA-MB-231, 72 h
Description: (§1) Cytotoxicity against human MDA-MB-231 cells assessed as cell growth inhibition incubated for 72 hrs by MTT assay

[2] = Solubility of compound in PBS at pH 7.4 at 2 mg measured for 24 hrs by HPLC-UV analysis; assay type: physicochemical
MDA-MB-231 [3] = test system: MDA-MB-231
Description: as §1

SMILES | IC50 (SW480) [nM] | IC50 (HEL; Homo sapiens, HEL, 72 h) [nM] | IC50 (MDA-MB-231 [1]) [nM] | solubility at 24 h [2] [µg/mL] | IC50 (MDA-MB-231 [3]) [nM] | IC50 (HEL; hel) [nM]
COc1cc(OC)c2c(c1)O[C@@]1(c3ccc(O)cc3)[C@H](c3ccccc3)C[C@@H](O)[C@@]21O (racemic) | > 1000 | 180 | 350 | 50 (≈ 0.119 mM) |  | 
COc1cc(OC)c2c(c1)O[C@@]1(c3ccc(OC)c(CN4CCOCC4)c3)[C@H](c3ccccc3)C[C@@H](O)[C@@]21O (racemic) | > 1000 | 140 | > 1000 |  |  | 
CCCCN(CCCC)Cc1cc([C@@]23Oc4cc(OC)cc(OC)c4[C@]2(O)[C@H](O)C[C@H]3c2ccccc2)ccc1OC (racemic) | > 1000 | > 1000 | > 1000 |  |  | 
CCN(CC)CCCCCOc1ccc([C@@]23Oc4cc(OC)cc(OC)c4[C@]2(O)[C@H](O)C[C@H]3c2ccccc2)cc1 (racemic) | 690 | 260 | 130 |  |  | 
CCN(CC)CCCCCCCCOc1ccc([C@@]23Oc4cc(OC)cc(OC)c4[C@]2(O)[C@H](O)C[C@H]3c2ccccc2)cc1 (racemic) | 650 | 390 | 470 |  |  | 
COc1cc(OC)c2c(c1)O[C@@]1(c3ccc(O)c(CN4CCCCC4)c3)[C@H](c3ccccc3)C[C@@H](O)[C@@]21O (racemic) | > 1000 | > 1000 | > 1000 |  |  | 
CCN(CC)Cc1cc([C@@]23Oc4cc(OC)cc(OC)c4[C@]2(O)[C@H](O)C[C@H]3c2ccccc2)ccc1O (racemic) | > 1000 | > 1000 | > 1000 |  |  | 
COc1cc(OC)c2c(c1)O[C@@]1(c3ccc(OCCn4cnc5ccccc54)cc3)[C@H](c3ccccc3)C[C@@H](O)[C@@]21O (racemic) | > 1000 | > 1000 | > 1000 |  |  | 
CCN(CC)CCOc1ccc([C@@]23Oc4cc(OC)cc(OC)c4[C@]2(O)[C@H](O)C[C@H]3c2ccccc2)cc1 (racemic) | > 1000 | > 1000 | > 1000 |  |  | 
COc1cc(OC)c2c(c1)O[C@@]1(c3ccc(OCCCCCCCCN4CCN(C)CC4)cc3)[C@H](c3ccccc3)C[C@@H](O)[C@@]21O (racemic) | 690 | 460 | 450 |  |  | 
COc1cc(OC)c2c(c1)O[C@@]1(c3ccc(OCCCCn4ccnc4)cc3)[C@H](c3ccccc3)C[C@@H](O)[C@@]21O (racemic) | > 1000 | 560 | 650 |  |  | 
COc1cc(OC)c2c(c1)O[C@@]1(c3ccc(OCCCCN(C)C)cc3)[C@H](c3ccccc3)C[C@@H](O)[C@@]21O (racemic) | > 1000 | > 1000 | 580 |  |  | 
COc1cc(OC)c2c(c1)O[C@@]1(c3ccc(OCCn4ccnc4)cc3)[C@H](c3ccccc3)C[C@@H](O)[C@@]21O (racemic) | > 1000 | > 1000 | > 1000 |  |  | 
COc1cc(OC)c2c(c1)O[C@@]1(c3ccc(OC)c(CN4CCCC4)c3)[C@H](c3ccccc3)C[C@@H](O)[C@@]21O (racemic) | > 1000 | 670 | > 1000 |  |  | 
COc1cc(OC)c2c(c1)O[C@@]1(c3ccc(OCCCCCN(C)C)cc3)[C@H](c3ccccc3)C[C@@H](O)[C@@]21O (racemic) | > 1000 | 170 | 370 |  |  | 
COc1cc(OC)c2c(c1)O[C@@]1(c3ccc(OCCCCN4CCCCC4)cc3)[C@H](c3ccccc3)C[C@@H](O)[C@@]21O (racemic) | > 1000 | 460 | 660 |  |  | 
COc1cc(OC)c2c(c1)O[C@@]1(c3ccc(OC)c(CN(C)C)c3)[C@H](c3ccccc3)C[C@@H](O)[C@@]21O (racemic) | > 1000 | 190 | > 1000 |  |  | 
COc1cc(OC)c2c(c1)O[C@@]1(c3ccc(OCCN4CCOCC4)cc3)[C@H](c3ccccc3)C[C@@H](O)[C@@]21O (racemic) | > 1000 | > 1000 | > 1000 |  |  | 
COc1cc(OC)c2c(c1)O[C@@]1(c3ccc(OCCCCCn4ccnc4)cc3)[C@H](c3ccccc3)C[C@@H](O)[C@@]21O (racemic) | 880 | 310 | 320 |  |  | 
COc1cc(OC)c2c(c1)O[C@@]1(c3ccc(O)c(CN(C)C)c3)[C@H](c3ccccc3)C[C@@H](O)[C@@]21O (racemic) | > 1000 | > 1000 | > 1000 |  |  | 

SMILES | IC50 (SW480) [nM] | IC50 (HEL; Homo sapiens, HEL, 72 h) [nM] | IC50 (MDA-MB-231 [1]) [nM] | solubility at 24 h [2] [µg/mL] | IC50 (MDA-MB-231 [3]) [nM] | IC50 (HEL; hel) [nM]
COc1cc(OC)c2c(c1)O[C@@]1(c3ccc(O)c(CN4CCCC4)c3)[C@H](c3ccccc3)C[C@@H](O)[C@@]21O (racemic) | > 1000 | > 1000 | > 1000 |  |  | 
COc1cc(OC)c2c(c1)O[C@@]1(c3ccc(OCCN4CCCCC4)cc3)[C@H](c3ccccc3)C[C@@H](O)[C@@]21O (racemic) | > 1000 | > 1000 | > 1000 |  |  | 
CCCCN(CCCC)Cc1cc([C@@]23Oc4cc(OC)cc(OC)c4[C@]2(O)[C@H](O)C[C@H]3c2ccccc2)ccc1O (racemic) | > 1000 | > 1000 | > 1000 |  |  | 
COc1cc(OC)c2c(c1)O[C@@]1(c3ccc(OCCCCCCCCn4cccc4)cc3)[C@H](c3ccccc3)C[C@@H](O)[C@@]21O (racemic) | > 1000 | > 1000 | > 1000 |  |  | 
COc1cc(OC)c2c(c1)O[C@@]1(c3ccc(OCCCCCCCCN4CCCCC4)cc3)[C@H](c3ccccc3)C[C@@H](O)[C@@]21O (racemic) | > 1000 | 240 | > 1000 |  |  | 
COc1cc(OC)c2c(c1)O[C@@]1(c3ccc(OCCCCCN4CCCCC4)cc3)[C@H](c3ccccc3)C[C@@H](O)[C@@]21O (racemic) | > 1000 | 180 | 190 |  |  | 
COc1cc(OC)c2c(c1)O[C@@]1(c3ccc(OCCCCN4CCN(C)CC4)cc3)[C@H](c3ccccc3)C[C@@H](O)[C@@]21O (racemic) | 650 | 380 | 220 |  |  | 
CCN(CC)Cc1cc([C@@]23Oc4cc(OC)cc(OC)c4[C@]2(O)[C@H](O)C[C@H]3c2ccccc2)ccc1OC (racemic) | 430 | 120 | > 1000 |  |  | 
COc1cc(OC)c2c(c1)O[C@@]1(c3ccc(OC)c(CN4CCCCC4)c3)[C@H](c3ccccc3)C[C@@H](O)[C@@]21O (racemic) | > 1000 | 570 | > 1000 |  |  | 
COc1cc(OC)c2c(c1)O[C@@]1(c3ccc(OCCN4CCCC4)cc3)[C@H](c3ccccc3)C[C@@H](O)[C@@]21O (racemic) | > 1000 | > 1000 | > 1000 |  |  | 
COc1cc(OC)c2c(c1)O[C@@]1(c3ccc(OCCN(C)C)cc3)[C@H](c3ccccc3)C[C@@H](O)[C@@]21O (racemic) | > 1000 | > 1000 | > 1000 |  |  | 
COc1cc(OC)c2c(c1)O[C@@]1(c3ccc(OCCN4CCN(C)CC4)cc3)[C@H](c3ccccc3)C[C@@H](O)[C@@]21O (racemic) | > 1000 | > 1000 | > 1000 |  |  | 
COc1cc(OC)c2c(c1)O[C@@]1(c3ccc(OCCCCCCCCN(C)C)cc3)[C@H](c3ccccc3)C[C@@H](O)[C@@]21O (racemic) | > 1000 | 220 | 210 |  |  | 
COc1cc(OC)c2c(c1)O[C@@]1(c3ccc(O)c(CN4CCOCC4)c3)[C@H](c3ccccc3)C[C@@H](O)[C@@]21O (racemic) | > 1000 | 490 | > 1000 |  |  | 
CCN(CC)CCCCOc1ccc([C@@]23Oc4cc(OC)cc(OC)c4[C@]2(O)[C@H](O)C[C@H]3c2ccccc2)cc1 (racemic) | > 1000 | > 1000 | 550 |  |  | 
COc1cc(OC)c2c(c1)O[C@@]1(c3ccc(OCCCCCN4CCN(C)CC4)cc3)[C@H](c3ccccc3)C[C@@H](O)[C@@]21O (racemic; form 1) | 550 |  |  | 8900 (≈ 15.1 mM) | 110 | 230
COc1cc(OC)c2c(c1)O[C@@]1(c3ccc(OCCCCCN4CCN(C)CC4)cc3)[C@H](c3ccccc3)C[C@@H](O)[C@@]21O (stereo in doubt; (+)-18o) |  |  |  |  |  | > 1000
COc1cc(OC)c2c(c1)O[C@@]1(c3ccc(OCCCCCN4CCN(C)CC4)cc3)[C@H](c3ccccc3)C[C@@H](O)[C@@]21O (stereo in doubt; (-)-18o) |  |  |  |  |  | 120
COc1cccc2c1C(=O)c1c(O)c3c(c(O)c1C2=O)C[C@@](O)(C(=O)CO)C[C@@H]3O[C@H]1C[C@H](N)[C@H](O)[C@H](C)O1 [DOXORUBICIN HYDROCHLORIDE] | 120 | 240 | 500 |  |  | 
